Source: article PMC5367033, “Inhibitors of BRD4 Protein from a Marine-Derived Fungus Alternaria sp. NH-F6” (Marine Drugs, 2017)

Target: T1, BRD4 (Homo sapiens, UniProt O60885)
T1 construct: His-tagged BRD4-BD1 (bromodomain 1)
Experiment: TR-FRET (HTRF) displacement of biotin-labeled peptide ligand from BRD4-BD1; single dose, […]
Type: biochemical
Settings: read-out: Inhibition Rate / 10 μM

O=C1CC[C@]2(O)c3c(ccc(O)c31)-c1ccc(O)c3c1C2[C@@H](O)[C@@H](Cl)[C@H]3O (stereo partly drawn) [compound 1, 12β-Chloro-3,9α,11β,13β,16-pentahydroxy-8,9,10,11,12,13-hexahydro-6(7H)-one]
inhibition at 10 µM: 57.7%

O=C1C=Cc2c3c4c(c(O)ccc4c4ccc(O)c1c24)[C@H](O)[C@H](O)[C@H]3O [compound 2, 3,11α,12β,13β,16-Pentahydroxy-11,12-dihydroperylen-6(13H)-one]
inhibition at 10 µM: 88.1%
